The values that follow are results of earlier work, collected in patent publication US5788978A, “Injectable pulsatile ivermectin composition” (priority 1996, dated 1998).

One data set concerns parasites. The settings on record: in vivo.

For the substance ivermectin, the “solubility in acqueous media” value is given as “insoluble”. The “minimum efficiency level in serum” value with parasites was 2 to 5 nanogrammes per milliliter of serum.
